What was measured:
Assay type in all cases: in vivo
[1] = system: rats; assay: Study of the stereotypies in rats; details: comparison of isomers, 32 mg/kg administered orally, schematic grades, 32 mg/kg
Protocol: Study of the stereotypies in rats
(§1) The tests were carried out on batches of 6 rats for each dose; immediately after the oral or intraperitoneal administration, the animals are placed in individual, transparent plastic 20×10×10 cm boxes provided with a pierced stainless steel lid. The stereotyped movements are rated from 0 to 3, in accordance with the method described by Simon and Chermat (J. Pharmacol. (Paris), 1972, 3, 235-238) every 10 minutes until they disappear in all the animals. The detailed curves are plotted and the surface area of the curve is calculated as described in the above reference.

[2] = system: rats; assay: Influence of alpha-methyltyrosine on the stereotypies caused in rats; details: 8 mg.kg^-1 intraperitoneal
Protocol: as §1
(b) Influence of alpha-methyltyrosine
At time 0, the animals receive, by intraperitoneal administration, either distilled water or alphamethyltyrosine at a dose of 64 mg.kg^-1; after 150 minutes, they receive, by intraperitoneal administration, the medicament according to the invention, obtained in accordance with Example III, at a dose of 8 mg.kg^-1.
The animals are observed under the conditions described above in the study of the stereotypies in rats.

[3] = system: rats; assay: Influence of pimozide on the stereotypies caused in rats; details: 8 mg.kg^-1 intraperitoneal
Protocol: as §1
Research into the antagonistic effects of the stereotypies caused in rats by the medicament according to the invention
(a) Influence of pimozide
At time 0, pimozide (1 mg.kg^-1) or distilled water is administered intraperitoneally; after 30 minutes, all the animals receive, by intraperitoneal administration, the medicament according to the invention, obtained in accordance with Example III (8 mg.kg^-1). The stereotypies are assessed as described above. The surface area of the curve of the stereotypies is calculated.

[4] = system: mice; assay: Motor activity in mice (activity meters with photoelectric cells); details: comparison of isomers; 32 mg/kg administered orally; schematic grades; listed as α diastereoisomer, 32 mg/kg
Protocol: The motor activity was determined with the aid of activity meters having photoelectric cells (Boissier and Simon, Arch. int. Pharmacodyn. 1965, 158, 212-221). A minimum of 10 animals was always used per batch.
The mice are placed in the activity meter just after the oral or intraperitoneal administration of the product acccording to the invention, obtained in accordance with Example I. The motor activity is measured as from the introduction into the activity meter up to the 60th minute. The counters are read after 30 minutes, then reset to 0 and read every 10 minutes for 30 minutes.

[5] = system: mice; assay: Anti-reserpine activity in mice (reserpine hypothermia); details: comparison of isomers; 32 mg/kg administered orally; schematic grades; listed as α diastereoisomer, 32 mg/kg
Protocol: Anti-reserpine activity in mice
At time 0, the mice receive reserpine (2.5 mg.kg^-1) by intraperitoneal administration.
After 4 hours, when the hypothermia is significant (30 to 31°C.), the substance to be studied is administered intraperitoneally or orally. The rectal temperature is measured, using a probe, carrying a thermoelectric couple, inserted to a constant depth, every 30 minutes for 2 hours.

[6] = system: mice; assay: Anti-apomorphine activity in mice (hypothermia caused by apomorphine); details: comparison of isomers; 32 mg/kg administered orally; schematic grades; listed as α diastereoisomer, 32 mg/kg

CC1CC(c2ccc(Cl)cc2)C(c2ccccc2)C(=O)O1 (stereo not drawn) [Example III, Trans-4-(4'-chlorophenyl)-6-methyl-3-phenyl-3,4,5,6-tetrahydropyrone-2, IIIα]
Stereotypy-forming action on rats ([1]; listed as 100% of α): 0
Stereotypy-forming action on rats ([1]; listed as α diastereoisomer): virtually disappears
surface area of the curve of the stereotypies, medicament by itself [2]: 63
surface area of the curve of the stereotypies, medicament + alpha-methyltyrosine ([2]; 150 min after alpha-methyltyrosine 64 mg.kg^-1 intraperitoneal): 60.8
surface area of the curve of the stereotypies, medicament by itself [3]: 63
surface area of the curve of the stereotypies, medicament administered after pimozide ([3]; 30 min after pimozide 1 mg.kg^-1 intraperitoneal): 17
Increase in the motor activity in mice [4]: less significant
Anti-reserpine action [5]: less significant
Anti-apomorphine action [6]: persists

Reference: patent US4287206A, “Halogen derivatives of 8-hydroxycarboxylic acids; the processes for their preparation and medicaments in which they are present” (priority 1978, dated 1981)
